Data on 1 compound can be found in US6682892B2, “Method for treating herpes viruses” (priority 2000, dated 2004).

Test [1] concerns the target T1, HCMV V823A polymerase (Human cytomegalovirus, UniProt P08546, V823A).
T1 construct: made in house
T1 sequence (P08546 1-1242 V823A): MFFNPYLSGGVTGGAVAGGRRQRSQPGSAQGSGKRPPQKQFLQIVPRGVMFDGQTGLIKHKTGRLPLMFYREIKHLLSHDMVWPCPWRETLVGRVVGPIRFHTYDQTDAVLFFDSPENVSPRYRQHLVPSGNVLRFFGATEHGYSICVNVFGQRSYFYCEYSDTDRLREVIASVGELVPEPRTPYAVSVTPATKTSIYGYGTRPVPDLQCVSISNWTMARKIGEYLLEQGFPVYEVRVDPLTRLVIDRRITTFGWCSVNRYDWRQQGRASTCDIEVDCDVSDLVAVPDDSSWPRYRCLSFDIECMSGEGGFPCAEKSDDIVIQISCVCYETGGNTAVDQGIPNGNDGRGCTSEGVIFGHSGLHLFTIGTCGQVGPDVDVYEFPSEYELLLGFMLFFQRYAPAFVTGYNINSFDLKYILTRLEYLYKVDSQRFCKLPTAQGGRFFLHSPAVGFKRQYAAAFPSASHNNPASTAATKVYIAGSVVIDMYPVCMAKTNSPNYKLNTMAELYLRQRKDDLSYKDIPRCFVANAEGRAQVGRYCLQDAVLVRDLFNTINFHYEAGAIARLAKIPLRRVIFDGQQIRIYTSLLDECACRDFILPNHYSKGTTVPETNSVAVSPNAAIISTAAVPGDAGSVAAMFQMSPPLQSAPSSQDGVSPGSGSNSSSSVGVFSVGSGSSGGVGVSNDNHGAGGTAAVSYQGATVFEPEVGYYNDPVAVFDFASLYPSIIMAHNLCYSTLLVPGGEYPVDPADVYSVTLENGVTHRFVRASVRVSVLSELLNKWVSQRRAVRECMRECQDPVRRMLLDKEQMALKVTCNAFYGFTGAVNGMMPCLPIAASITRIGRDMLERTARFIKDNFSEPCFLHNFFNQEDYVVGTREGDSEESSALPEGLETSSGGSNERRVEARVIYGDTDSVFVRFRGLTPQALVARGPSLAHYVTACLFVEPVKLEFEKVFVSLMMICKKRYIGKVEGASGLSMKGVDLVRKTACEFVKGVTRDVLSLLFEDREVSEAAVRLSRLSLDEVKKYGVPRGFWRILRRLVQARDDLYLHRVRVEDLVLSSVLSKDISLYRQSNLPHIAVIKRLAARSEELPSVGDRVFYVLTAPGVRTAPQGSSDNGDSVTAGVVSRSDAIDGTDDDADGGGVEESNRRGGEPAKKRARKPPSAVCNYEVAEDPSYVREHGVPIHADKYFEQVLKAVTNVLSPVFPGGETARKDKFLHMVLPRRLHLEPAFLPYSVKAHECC
The test is described as follows: In vitro polymerase assay, mutant HCMV polymerase V823A. The format is biochemical. As to the method:
(§1) In order to select for a 4-oxo-DHQ HCMV resistant mutant, virus (strain AD169) is serially passaged in the presence of 20 uM a 4-oxo-DHQ. […] In order to determine if both valines need to be changed in order to confer resistance to the 4-oxo-DHQ's, in vitro polymerase assays are done using mutant HCMV polymerases containing either V823A or V823A plus V824L (Table 3).

Test [2] has as its system HSV-1 KOS. The test is described as follows: Plaque reduction assay, HSV-1 KOS. It counts as cell-based. To be noted: Table 1, plaque reduction, Vero cells; read-out: IC50 (uM), HSV-1 KOS. As to the method: (§2) Antiviral activity of compounds against herpesviruses such as HSV-1, HSV-2, or HCMV can be measured using plaque reduction assays. 0.1 ml of media containing approximately 50 PFU of virus is added to each well of a 24-well cell culture dish containing a confluent monolayer of cells (Vero cells for HSV-1 and HSV-2, HFF cells for HCMV). Compounds are dissolved in 100% DMSO and diluted in 100% DMSO as 200× stocks of the desired final drug concentration. Typically 5-6 two-fold dilutions are prepared for each compound. Dilutions of compounds are then added to media containing 0.8% CMC resulting in a final 1× drug concentration. After the virus-infected cells have incubated for 1 h at 37° C., the virus innoculum is removed and 1 ml of media containing 0.8% CMC and the various concentrations of compound is added to each well of the dish. The dish is incubated at 37° C. for approximately 2-3 days (HSV-1 and HSV-2) or 6-9 days (HCMV) to allow sufficient growth of virus to form plaques in the cell monolayer. Plaques can be observed and counted microscopically or by staining the cells with 0.1% crystal violet in 20% ethanol. […] Antiviral activity of a compound is expressed as the concentration of compound predicted to reduce the number of plaques in a well by 50% (IC50). The IC50 values are calculated by plotting the per cent inhibition vs. concentration of compound using EXCEL software for linear regression.
(§3) A panel of viruses consisting of four strains of HSV-1 (KOS, F, DJL, Patton) and three strains of HSV-2 (MS, 35D, 186) are tested in a plaque reduction assay against four different 4-oxo-DHQ compounds (#1, 2, 4, 5 as shown in FIG. 1), and one 4-oxo-DHTP compound (#3 as shown in FIG. 1) and against Acyclovir. The six drugs inhibited replication of the seven virus strains with IC50 values ranging from 2-10 μM (Table 1). In order to select for 4-oxo-DHQ resistant mutants, HSV-1 strains KOS, F, and DJL along with HSV-2 strains 186 and MS are serially passaged in the presence of 20 uM compound 1. Following the seventh passage, 4-oxo-DHQ resistant virus from each strain are plaque purified three times and high-titer stocks are made.
Background: Plaques are areas of infected cells; plaque reduction assays count them against a control.

Test [3] relates to HSV-2 186. The experiment in a line: Plaque reduction assay, HSV-2 186. It counts as cell-based. The following applies: Table 1, plaque reduction, Vero cells. The method, then: as §2, §3
The test system of test [4] is HSV-1 KOS-M1 (V823A). The test is described as follows: Plaque reduction assay, 4-oxo-DHQ resistant HSV-1 KOS-M1. The format is cell-based. The following applies: Table 2, mutant V823A; read-out: IC50 (uM), HSV-1 Kos-M1. As to the method: as §2
Vero cells are plated out at a density of 3.5×10^5 cells per well in a six well tissue culture plate. Cells are infected with HSV-1 KOS at a multiplicity of infection (moi) of 0.1 pfu/cell and 1 h post infection the cells are overlayed with 3 ml media containing 20 uM of a 4-oxo-DHQ. Cultures are incubated for 20 h at 37° C., freeze/thawed to release cell-associated virus, and 0.1 ml of culture is used to infect a new monolayer of Vero cells (one passage). Serial passage is repeated seven times in the presence of 20 uM drug. Virus isolates are then plaque purified three times prior to preparation of stocks. 4-oxo-DHQ resistant HSV-1 and HSV-2 may also be selected by the marker transfer method described below using wild-type HSV DNA and the corresponding mutant HSV polymerase gene.
as §3

For test [5], the system named is HCMV AD169. The experiment in a line: Plaque reduction assay, HCMV AD169. It counts as cell-based. The following applies: Table 4, plaque reduction, wild type; read-out: HCMV AD169 IC50. The method, then: as §2
For test [6], the target named is HCMV (wild) polymerase (Human cytomegalovirus, UniProt P08546). The experiment in a line: In vitro polymerase assay, wild HCMV polymerase. The format is biochemical. The following applies: Table 3. The method, then: as §1

As usually defined, the IC50 is the concentration at which inhibition is half-maximal.

Structures are written as SMILES.

Chain of HCMV (wild) polymerase (P08546 whole entry): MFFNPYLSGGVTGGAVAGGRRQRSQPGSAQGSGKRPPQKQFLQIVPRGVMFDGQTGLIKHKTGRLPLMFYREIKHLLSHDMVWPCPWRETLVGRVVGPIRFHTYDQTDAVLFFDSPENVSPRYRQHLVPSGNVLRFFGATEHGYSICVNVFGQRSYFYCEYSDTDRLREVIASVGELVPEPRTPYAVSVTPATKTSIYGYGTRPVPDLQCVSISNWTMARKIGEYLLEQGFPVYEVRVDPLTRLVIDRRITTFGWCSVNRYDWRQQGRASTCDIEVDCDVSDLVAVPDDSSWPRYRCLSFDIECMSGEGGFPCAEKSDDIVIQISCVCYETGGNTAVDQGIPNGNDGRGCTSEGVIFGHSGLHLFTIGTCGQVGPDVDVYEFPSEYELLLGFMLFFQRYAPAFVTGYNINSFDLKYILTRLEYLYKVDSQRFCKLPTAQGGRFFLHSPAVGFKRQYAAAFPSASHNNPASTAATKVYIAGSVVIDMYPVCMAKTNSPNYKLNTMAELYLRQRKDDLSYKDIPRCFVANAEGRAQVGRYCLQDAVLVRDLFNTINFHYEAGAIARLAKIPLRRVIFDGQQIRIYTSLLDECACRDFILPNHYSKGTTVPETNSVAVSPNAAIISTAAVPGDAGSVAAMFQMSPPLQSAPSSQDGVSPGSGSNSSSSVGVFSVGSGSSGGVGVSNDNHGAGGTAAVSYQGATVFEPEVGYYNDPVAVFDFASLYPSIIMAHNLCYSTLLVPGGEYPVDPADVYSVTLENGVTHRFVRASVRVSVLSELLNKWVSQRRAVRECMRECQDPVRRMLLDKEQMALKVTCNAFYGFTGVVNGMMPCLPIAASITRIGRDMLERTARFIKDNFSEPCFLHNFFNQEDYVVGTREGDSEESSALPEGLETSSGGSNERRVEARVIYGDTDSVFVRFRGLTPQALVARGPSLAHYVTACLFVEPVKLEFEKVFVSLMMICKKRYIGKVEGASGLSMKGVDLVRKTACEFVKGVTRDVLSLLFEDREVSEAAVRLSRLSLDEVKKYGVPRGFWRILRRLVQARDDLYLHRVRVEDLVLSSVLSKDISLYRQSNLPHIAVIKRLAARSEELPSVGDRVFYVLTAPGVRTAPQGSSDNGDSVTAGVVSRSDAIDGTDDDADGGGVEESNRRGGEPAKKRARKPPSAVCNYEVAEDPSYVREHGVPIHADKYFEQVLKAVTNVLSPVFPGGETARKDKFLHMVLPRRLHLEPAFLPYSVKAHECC

For `Cn1cc(C(=O)NCc2ccc(Cl)cc2)c(=O)c2cc(/C=C\CO)cc(F)c21` [Compound 1], the IC50 was 17.2 µM in test [1] (Table 3); 2 µM in test [2]; 2 µM in test [3]; > 20 µM in test [4]; 700 nM in test [5]; 4.6 µM in test [6]. For the same compound, the “increase in resistance, HCMV V823A polymerase” value in test [1] (relative to wild type polymerase) is on record as “*Generation of the valine to alanine at amino acid 823 of HCMV results in a 3.5-fold increase in resistance”.
